26 compounds from patent US20230002361A1, “2H-INDAZOLE DERIVATIVES AND THEIR USE IN THE TREATMENT OF DISEASE” (BIOGEN MA INC., priority 2019, published 2023) can be followed below.

In one series the target is T1, MDR1 (P-gp) (Homo sapiens, UniProt P08183).
T1 construct: host or cells: MDCK cells
The experiment in a line: MDR1-MDCK assay (efflux ratio). In kind it is in vitro ADME. Particulars: human, MDCK-MDR1, 1 μM compound, 120 minutes incubation; read-out: MDR1-MDCK Efflux Ratio; (B-A/A-B). The method, boiled down:
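Human MDR1-transfected MDCK monolayers, cultured 7 days on transwell inserts with TEER checked, were dosed with compound at 1 μM in HBSS-HEPES. Transport was measured in both A-B and B-A directions. Efflux ratio came from the directional permeabilities, with mass balance also calculated.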

The next series addresses T2, IRAK4 (Homo sapiens, UniProt Q9NWZ3).
T2 construct: with 0.1 nM IRAK4, 1.6 μM of biotinylated peptide substrate and 10 μM ATP
T2 sequence (Q9NWZ3 1-460): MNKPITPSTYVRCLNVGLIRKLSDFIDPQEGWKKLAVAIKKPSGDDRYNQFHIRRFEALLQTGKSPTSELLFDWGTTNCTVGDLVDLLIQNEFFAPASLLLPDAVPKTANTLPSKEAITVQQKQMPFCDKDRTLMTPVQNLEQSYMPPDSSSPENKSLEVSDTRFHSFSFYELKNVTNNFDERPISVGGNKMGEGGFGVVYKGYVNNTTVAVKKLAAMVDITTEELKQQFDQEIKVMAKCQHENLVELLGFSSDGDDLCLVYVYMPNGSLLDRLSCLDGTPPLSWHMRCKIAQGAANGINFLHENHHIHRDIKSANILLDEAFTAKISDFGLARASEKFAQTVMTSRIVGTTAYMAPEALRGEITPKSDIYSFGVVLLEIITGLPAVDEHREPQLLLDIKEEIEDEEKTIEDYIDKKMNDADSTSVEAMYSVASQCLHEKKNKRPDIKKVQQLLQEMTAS
In words: IRAK4 MSD Biochemical Assay (1 mM ATP, 2 h). Particulars: room temperature. The method, boiled down: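 Run with 1 mM ATP and […] for 2 h, then quenched with EDTA, pH 8. The phosphorylated biotinylated peptide was captured on streptavidin plates and detected with anti-phospho-threonine antibody plus Sulfo-Tag secondary by MSD electrochemiluminescence.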

Setting [1] is: read-out: IRAK4 MSD Biochemical Assay (1 mM ATP, 2 h) IC50.

Where a name gives a salt, the structure may show the parent alone. Read-outs that look alike come from different tables or passages of the source.

One may read the IC50 as the concentration that gives 50% inhibition.

T1 sequence (P08183 whole entry): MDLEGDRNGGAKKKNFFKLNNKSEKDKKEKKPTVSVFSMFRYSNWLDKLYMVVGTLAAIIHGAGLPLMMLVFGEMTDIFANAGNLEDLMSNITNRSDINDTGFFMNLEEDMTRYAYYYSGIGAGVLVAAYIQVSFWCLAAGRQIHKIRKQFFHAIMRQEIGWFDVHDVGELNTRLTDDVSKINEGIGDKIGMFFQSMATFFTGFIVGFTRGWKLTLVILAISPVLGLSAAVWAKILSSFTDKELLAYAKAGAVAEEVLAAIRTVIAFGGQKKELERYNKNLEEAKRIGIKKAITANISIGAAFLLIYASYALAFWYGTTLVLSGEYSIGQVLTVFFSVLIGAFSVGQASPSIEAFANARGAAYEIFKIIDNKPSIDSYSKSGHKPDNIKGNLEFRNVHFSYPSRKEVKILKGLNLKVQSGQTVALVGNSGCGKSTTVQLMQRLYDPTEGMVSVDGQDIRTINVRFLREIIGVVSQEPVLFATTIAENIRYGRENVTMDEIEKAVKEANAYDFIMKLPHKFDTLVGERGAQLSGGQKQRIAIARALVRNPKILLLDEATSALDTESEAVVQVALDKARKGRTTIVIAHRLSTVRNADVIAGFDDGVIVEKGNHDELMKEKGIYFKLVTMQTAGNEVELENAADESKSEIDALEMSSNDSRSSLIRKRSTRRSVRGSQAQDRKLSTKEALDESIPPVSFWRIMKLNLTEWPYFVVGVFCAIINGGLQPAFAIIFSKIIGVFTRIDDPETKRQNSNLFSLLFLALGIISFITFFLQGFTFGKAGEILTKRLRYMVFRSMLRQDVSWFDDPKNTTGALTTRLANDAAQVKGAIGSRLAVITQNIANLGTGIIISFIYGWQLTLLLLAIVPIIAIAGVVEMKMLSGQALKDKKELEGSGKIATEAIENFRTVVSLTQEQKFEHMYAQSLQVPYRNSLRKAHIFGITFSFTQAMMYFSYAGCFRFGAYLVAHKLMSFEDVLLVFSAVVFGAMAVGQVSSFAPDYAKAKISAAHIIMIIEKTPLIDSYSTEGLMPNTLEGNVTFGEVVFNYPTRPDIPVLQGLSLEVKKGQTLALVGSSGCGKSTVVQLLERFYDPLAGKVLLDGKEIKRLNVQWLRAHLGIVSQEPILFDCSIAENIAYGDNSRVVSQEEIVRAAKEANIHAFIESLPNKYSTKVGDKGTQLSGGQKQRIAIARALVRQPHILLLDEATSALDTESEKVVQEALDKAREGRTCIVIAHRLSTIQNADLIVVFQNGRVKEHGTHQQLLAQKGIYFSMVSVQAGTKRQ

For the compound `Cn1cccc(NC(=O)c2cc3cn(C45COC(C)(C4)C5)nc3cc2OC2CCC2)c1=O` [Example 83, 6-Cyclobutoxy-N-(1-methyl-2-oxo-1,2-dihydropyridin-3-yl)-2-(1-methyl-2-oxabicyclo[2.1.1]hexan-4-yl)-2H-indazole-5-carboxamide trifluoroacetate], on MDR1 (P-gp), the efflux ratio at 120 min, 1 μM turned out to be 1.2. Moreover, the IC50 on IRAK4 (setting [1]) came to 1.4 nM.

On to `CC(C)Oc1cc2nn(C3CCOCC3)cc2cc1C(=O)Nc1cccnc1OC(F)F.Cl` [Example 70, N-(2-(difluoromethoxy)pyridin-3-yl)-6-isopropoxy-2-(tetrahydro-2H-pyran-4-yl)-2H-indazole-5-carboxamide hydrochloride], for which, on MDR1 (P-gp), the efflux ratio at 120 min, 1 μM amounted to 1.1. For the same compound, the IC50 at IRAK4 (setting [1]) was 8.7 nM.

Take `CC(C)Oc1cc2nn(CC3CCOC3)cc2cc1C(=O)Nc1cnn2cccnc12` (stereo not shown) [Example 39, 6-Isopropoxy-N-(pyrazolo[1,5-a]pyrimidin-3-yl)-2-((tetrahydrofuran-3-yl)methyl)-2H-indazole-5-carboxamide]: the efflux ratio at 120 min, 1 μM on MDR1 (P-gp) is 3.1. Besides, the IC50 at IRAK4 (setting [1]) was 1.8 nM.

For the compound `CC(C)Oc1cc2nn(C34COC(C)(C3)C4)cc2cc1C(=O)Nc1ccn(C)n1` [Example 92, 6-Isopropoxy-N-(1-methyl-1H-pyrazol-3-yl)-2-(1-methyl-2-oxabicyclo[2.1.1]hexan-4-yl)-2H-indazole-5-carboxamide], on MDR1 (P-gp), the efflux ratio at 120 min, 1 μM worked out at 1.6. The IC50 at IRAK4 (setting [1]) was found to be 4.8 nM.

Regarding `CC(C)Oc1cc2nn(C3CCOCC3)cc2cc1C(=O)Nc1ccn(C)n1` [Example 67, 6-Isopropoxy-N-(1-methyl-1H-pyrazol-3-yl)-2-(tetrahydro-2H-pyran-4-yl)-2H-indazole-5-carboxamide], at MDR1 (P-gp), the efflux ratio at 120 min, 1 μM worked out at 4.6. Besides, at IRAK4 (setting [1]), the IC50 was found to be 9.5 nM.

With `CC(C)Oc1nc2nn(C3CCCOC3)cc2cc1C(=O)Nc1cnn2cccnc12` (stereo not shown) [Example 36, 6-Isopropoxy-N-(pyrazolo[1,5-a]pyrimidin-3-yl)-2-(tetrahydro-2H-pyran-3-yl)-2H-pyrazolo[3,4-b]pyridine-5-carboxamide], the efflux ratio at 120 min, 1 μM at MDR1 (P-gp) amounted to 2.2. In addition, the IC50 at IRAK4 (setting [1]) was found to be 0.5 nM.

For `Cl.O=C(Nc1cccc(C(F)F)n1)c1cc2cn(C3CCOCC3)nc2cc1O[C@H]1C[C@H](C(F)F)C1` [Example 48, 6-((1R,3R)-3-(difluoromethyl)cyclobutoxy)-N-(6-(difluoromethyl)pyridin-2-yl)-2-(tetrahydro-2H-pyran-4-yl)-2H-indazole-5-carboxamide Hydrochloride], the efflux ratio at 120 min, 1 μM at MDR1 (P-gp) was 1.3. Besides, on IRAK4 (setting [1]), the IC50 came to 0.5 nM.

Regarding `COc1cc2nn(C3CCOCC3)cc2cc1C(=O)Nc1ccccn1.O=C(O)C(F)(F)F` [Example 6, 6-Methoxy-N-(pyridin-2-yl)-2-(tetrahydro-2H-pyran-4-yl)-2H-indazole-5-carboxamide trifluoroacetate], the efflux ratio at 120 min, 1 μM on MDR1 (P-gp) is 1.1. Also, the IC50 on IRAK4 (setting [1]) was found to be 187 nM.

In the case of `COc1cccc(NC(=O)c2cc3cn(C[C@@H]4CCOC4)nc3cc2OC)n1` (single isomer, unassigned) [Example 22], at MDR1 (P-gp), the efflux ratio at 120 min, 1 μM was determined as 0.6. Also, the IC50 at IRAK4 (setting [1]) was determined as 9.2 nM.

`CC(C)Oc1nc2nn(CC3CCOC3)cc2cc1C(=O)Nc1ccn(C)n1` (stereo not shown) [Example 79, 6-Isopropoxy-N-(1-methyl-1H-pyrazol-3-yl)-2-((tetrahydrofuran-3-yl)methyl)-2H-pyrazolo[3,4-b]pyridine-5-carboxamide]: the efflux ratio at 120 min, 1 μM at MDR1 (P-gp) worked out at 9.4. Further, the IC50 at IRAK4 (setting [1]) was 10.6 nM.

Consider `CC(C)Oc1nc2nn(CC3CCOC3)cc2cc1C(=O)Nc1ccccn1` (stereo not shown) [Example 77, 6-Isopropoxy-N-(pyridin-2-yl)-2-((tetrahydrofuran-3-yl)methyl)-2H-pyrazolo[3,4-b]pyridine-5-carboxamide], for which, at MDR1 (P-gp), the efflux ratio at 120 min, 1 μM came to 1.9. Besides, at IRAK4 (setting [1]), the IC50 stood at 13.6 nM.

For `CC(C)Oc1cc2nn(C34COC(C)(C3)C4)cc2cc1C(=O)Nc1cccc(C(F)F)n1` [Example 88, N-(6-(difluoromethyl)pyridin-2-yl)-6-isopropoxy-2-(1-methyl-2-oxabicyclo[2.1.1]hexan-4-yl)-2H-indazole-5-carboxamide trifluoroacetate], on MDR1 (P-gp), the efflux ratio at 120 min, 1 μM came to 0.5. For the same compound, the 50% inhibitory concentration (IC50) on IRAK4 (setting [1]) came to 0.1 nM.

Take `CC12CCC(n3cc4cc(C(=O)Nc5cnn6cccnc56)c(OC5CCC5)cc4n3)(CO1)C2` (single isomer, unassigned) [Example 137]: the efflux ratio at 120 min, 1 μM on MDR1 (P-gp) came out at 2.1. On IRAK4 (setting [1]), the IC50 is 0.2 nM.

With `CC(C)Oc1cc2nn(C3CCOCC3)cc2cc1C(=O)Nc1cccc2c1OCC2.Cl` [Example 73, N-(2,3-dihydrobenzofuran-7-yl)-6-isopropoxy-2-(tetrahydro-2H-pyran-4-yl)-2H-indazole-5-carboxamide hydrochloride], on MDR1 (P-gp), the efflux ratio at 120 min, 1 μM is 0.7. Also, on IRAK4 (setting [1]), the IC50 was found to be 1.8 nM.

`CC(C)Oc1cc2nn([C@H]3CCCOC3)cc2cc1C(=O)Nc1cccc(C(F)F)n1` (single isomer, unassigned) [Example 42]: at MDR1 (P-gp), the efflux ratio at 120 min, 1 μM amounted to 0.9. Moreover, the IC50 at IRAK4 (setting [1]) is 0.4 nM.

Take `CC(C)Oc1cc2nn(C[C@H]3CCOC3)cc2cc1C(=O)Nc1cccc(C(F)F)n1` (single isomer, unassigned) [Example 20]: on MDR1 (P-gp), the efflux ratio at 120 min, 1 μM came to 0.7. Also, the IC50 at IRAK4 (setting [1]) came out at 0.5 nM.

As for `Cc1cnc2c(NC(=O)c3cc4cn(C[C@H]5CCOC5)nc4nc3OC(C)C)cnn2c1` (single isomer, unassigned) [Example 104], the efflux ratio at 120 min, 1 μM on MDR1 (P-gp) was 4.8. At IRAK4 (setting [1]), the IC50 amounted to 0.9 nM.

In the case of `COCCn1cc2cc(C(=O)Nc3cccc(C(F)F)n3)c(OC(C)C)cc2n1.Cl` [Example 28, N-(6-(difluoromethyl)pyridin-2-yl)-6-isopropoxy-2-(2-methoxyethyl)-2H-indazole-5-carboxamide hydrochloride], on MDR1 (P-gp), the efflux ratio at 120 min, 1 μM came to 0.4. In addition, the IC50 at IRAK4 (setting [1]) came to 4.4 nM.

On to `COc1cccc(NC(=O)c2cc3cn(CC45COC(C)(C4)C5)nc3cc2OC)n1.O=C(O)C(F)(F)F` [Example 3, 6-Methoxy-N-(6-methoxypyridin-2-yl)-2-((1-methyl-2-oxabicyclo[2.1.1]hexan-4-yl)methyl)-2H-indazole-5-carboxamide trifluoroacetate], for which, on MDR1 (P-gp), the efflux ratio at 120 min, 1 μM amounted to 0.9. The IC50 on IRAK4 (setting [1]) was 10000 nM.

As for `COc1cccc(NC(=O)c2cc3cn(C45COC(C)(C4)C5)nc3cc2OC(C)C)n1` [Example 89, 6-Isopropoxy-N-(6-methoxypyridin-2-yl)-2-(1-methyl-2-oxabicyclo[2.1.1]hexan-4-yl)-2H-indazole-5-carboxamide trifluoroacetae], on MDR1 (P-gp), the efflux ratio at 120 min, 1 μM is 0.6. The IC50 at IRAK4 (setting [1]) came out at 1 nM.

With `CC(C)Oc1nc2nn(CC3CCOC3)cc2cc1C(=O)Nc1cnn2cccnc12` (stereo not shown) [Example 54, 6-Isopropoxy-N-(pyrazolo[1,5-a]pyrimidin-3-yl)-2-((tetrahydrofuran-3-yl)methyl)-2H-pyrazolo[3,4-b]pyridine-5-carboxamide], the efflux ratio at 120 min, 1 μM at MDR1 (P-gp) is 3.6. Further, the half-maximal inhibitory concentration (IC50) on IRAK4 (IRAK4 MSD Biochemical Assay (1 mM ATP, 2 h) IC50 (nM)) came out at 1.3 nM.

Consider `CC(C)Oc1cc2nn(CCC(C)(C)O)cc2cc1C(=O)Nc1ccn(C(F)F)n1` [Example 33, N-(1-(difluoromethyl)-1H-pyrazol-3-yl)-2-(3-hydroxy-3-methylbutyl)-6-isopropoxy-2H-indazole-5-carboxamide], for which, at MDR1 (P-gp), the efflux ratio at 120 min, 1 μM is 8.6. Besides, on IRAK4 (setting [1]), the IC50 stood at 4.3 nM.

With `CCOc1cc2nn(CCC(C)(C)O)cc2cc1C(=O)Nc1cccc(C(F)F)n1` [Example 31, N-(6-(difluoromethyl)pyridin-2-yl)-6-ethoxy-2-(3-hydroxy-3-methylbutyl)-2H-indazole-5-carboxamide], the efflux ratio at 120 min, 1 μM at MDR1 (P-gp) turned out to be 1.9. On IRAK4 (setting [1]), the IC50 worked out at 0.7 nM.

`CC(C)Oc1nc2nn(C3CCOCC3)cc2cc1C(=O)Nc1cnn2cccnc12` [Example 82, 6-Isopropoxy-N-(pyrazolo[1,5-a]pyrimidin-3-yl)-2-(tetrahydro-2H-pyran-4-yl)-2H-pyrazolo[3,4-b]pyridine-5-carboxamide]: the efflux ratio at 120 min, 1 μM on MDR1 (P-gp) is 2.6. On IRAK4 (setting [1]), the IC50 is 1.2 nM.

Consider `CC(C)Oc1cc2nn([C@]34CC[C@](C)(C3)OC4)cc2cc1C(=O)Nc1cccc(C(F)F)n1` (single isomer, unassigned) [Example 125], for which the efflux ratio at 120 min, 1 μM on MDR1 (P-gp) stood at 0.5. For the same compound, on IRAK4 (setting [1]), the IC50 was determined as 0.4 nM.

As for `CO[C@H]1C[C@H](n2cc3cc(C(=O)Nc4cccc(C(F)F)n4)c(OC(C)C)cc3n2)C1` [Example 74, N-(6-(difluoromethyl)pyridin-2-yl)-6-isopropoxy-2-((1R,3R)-3-methoxycyclobutyl)-2H-indazole-5-carboxamide], the efflux ratio at 120 min, 1 μM on MDR1 (P-gp) came out at 0.5. Besides, the IC50 on IRAK4 (setting [1]) was found to be 0.4 nM.
